Source: the supplement of paper PMC10307832

compound: Cn1nnc2c(C(N)=O)ncn2c1=O [Temozolomide] + O=C(CCCCCCC(=O)Nc1ccccc1)NO [Vorinostat] (partner 1 µM); assay: relative viability (nuclei count vs DMSO), 5 days (fraction); higher = more cells survive; conditions: first compound 0.2 µM
Outline: (§1)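 Relative viability equals treated-well nuclei counts divided by vehicle-well nuclei counts. Counts came from 4× images of lung cancer cell lines grown in 1536-well plates for 5 days after pin-tool dosing on the day after seeding. Dosing used one drug alone or a fixed anchor-drug dose plus five library-drug doses (not always all listed) in √10 steps, and values are medians of duplicate plates.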

| Cell Line | relative viability |
| --- | --- |
| NCI-H2085 | 0.87 |
| NCI-H2087 | 0.702 |
| NCI-H2126 | 0.632 |
| NCI-H2228 | 0.978 |
| NCI-H2347 | 0.476 |
| NCI-H2405 | 1.25 |
| NCI-H3122 | 1.11 |
| PC-3 [JPC-3] | 1.21 |
| PC-14 | 0.74 |

same assay, conditions: first compound 0.6325 µM

| Cell Line | relative viability |
| --- | --- |
| LU99A | 0.548 |
| LXF-289 | 0.826 |
| NCI-H23 | 0.727 |
| NCI-H322M | 0.931 |
| NCI-H441 | 0.885 |
| NCI-H460 | 0.694 |
| NCI-H520 | 0.77 |
| NCI-H596 | 0.652 |
| NCI-H647 | 0.705 |
| NCI-H650 | 0.41 |
| NCI-H661 | 0.789 |
| NCI-H838 | 0.727 |
| NCI-H1355 | 0.638 |
| NCI-H1437 | 0.748 |
| NCI-H1650 | 0.639 |
| NCI-H1651 | 0.49 |
| NCI-H1666 | 1 |

| Cell Line | relative viability |
| --- | --- |
| NCI-H1734 | 0.79 |
| NCI-H1755 | 0.763 |
| NCI-H1915 | 0.517 |
| NCI-H1975 | 0.76 |
| NCI-H1993 | 0.829 |
| NCI-H2009 | 0.737 |
| NCI-H2023 | 0.676 |
| NCI-H2085 | 0.816 |
| NCI-H2087 | 0.651 |
| NCI-H2126 | 0.761 |
| NCI-H2228 | 0.443 |
| NCI-H2347 | 0.668 |
| NCI-H2405 | 1.08 |
| NCI-H3122 | 0.988 |
| PC-3 [JPC-3] | 0.737 |
| PC-14 | 0.923 |

same assay, conditions: first compound 2 µM

| Cell Line | relative viability |
| --- | --- |
| LU99A | 0.419 |
| LXF-289 | 0.65 |
| NCI-H23 | 0.716 |
| NCI-H322M | 1.05 |
| NCI-H441 | 0.773 |
| NCI-H460 | 0.706 |
| NCI-H520 | 0.753 |
| NCI-H596 | 0.58 |
| NCI-H647 | 0.494 |
| NCI-H650 | 0.462 |
| NCI-H661 | 0.849 |
| NCI-H838 | 0.72 |
| NCI-H1355 | 0.638 |
| NCI-H1437 | 0.915 |
| NCI-H1650 | 0.578 |
| NCI-H1651 | 0.628 |
| NCI-H1666 | 0.94 |

| Cell Line | relative viability |
| --- | --- |
| NCI-H1734 | 0.861 |
| NCI-H1755 | 0.604 |
| NCI-H1915 | 0.507 |
| NCI-H1975 | 0.711 |
| NCI-H1993 | 1.07 |
| NCI-H2009 | 0.712 |
| NCI-H2023 | 0.675 |
| NCI-H2085 | 0.865 |
| NCI-H2087 | 0.804 |
| NCI-H2126 | 0.817 |
| NCI-H2228 | 0.695 |
| NCI-H2347 | 0.674 |
| NCI-H2405 | 1.05 |
| NCI-H3122 | 1.17 |
| PC-3 [JPC-3] | 0.937 |
| PC-14 | 0.693 |

same assay, conditions: first compound 6.325 µM

| Cell Line | relative viability |
| --- | --- |
| LU99A | 0.388 |
| LXF-289 | 0.712 |
| NCI-H23 | 0.595 |
| NCI-H322M | 0.899 |
| NCI-H441 | 0.703 |
| NCI-H460 | 0.709 |
| NCI-H520 | 0.769 |
| NCI-H596 | 0.585 |
| NCI-H647 | 0.304 |
| NCI-H650 | 0.299 |
| NCI-H661 | 0.783 |
| NCI-H838 | 0.748 |
| NCI-H1355 | 0.624 |
| NCI-H1437 | 0.831 |
| NCI-H1650 | 0.648 |
| NCI-H1651 | 0.499 |
| NCI-H1666 | 0.794 |

| Cell Line | relative viability |
| --- | --- |
| NCI-H1734 | 0.709 |
| NCI-H1755 | 0.627 |
| NCI-H1915 | 0.343 |
| NCI-H1975 | 0.701 |
| NCI-H1993 | 0.798 |
| NCI-H2009 | 0.706 |
| NCI-H2023 | 0.502 |
| NCI-H2085 | 0.76 |
| NCI-H2087 | 0.741 |
| NCI-H2126 | 0.752 |
| NCI-H2228 | 0.175 |
| NCI-H2347 | 0.629 |
| NCI-H2405 | 0.99 |
| NCI-H3122 | 0.998 |
| PC-3 [JPC-3] | 0.732 |
| PC-14 | 0.768 |

same assay, conditions: first compound 20 µM

| Cell Line | relative viability |
| --- | --- |
| LU99A | 0.551 |
| LXF-289 | 0.712 |
| NCI-H23 | 0.541 |
| NCI-H322M | 0.761 |
| NCI-H441 | 0.691 |
| NCI-H460 | 0.685 |
| NCI-H520 | 0.646 |
| NCI-H596 | 0.689 |
| NCI-H647 | 0.153 |
| NCI-H650 | 0.469 |
| NCI-H661 | 0.691 |
| NCI-H838 | 0.739 |
| NCI-H1355 | 0.583 |
| NCI-H1437 | 0.92 |
| NCI-H1650 | 0.483 |
| NCI-H1651 | 0.613 |
| NCI-H1666 | 0.868 |

| Cell Line | relative viability |
| --- | --- |
| NCI-H1734 | 0.831 |
| NCI-H1755 | 0.638 |
| NCI-H1915 | 0.241 |
| NCI-H1975 | 0.719 |
| NCI-H1993 | 0.507 |
| NCI-H2009 | 0.684 |
| NCI-H2023 | 0.718 |
| NCI-H2085 | 0.68 |
| NCI-H2087 | 0.822 |
| NCI-H2126 | 0.624 |
| NCI-H2228 | 0.486 |
| NCI-H2347 | 0.635 |
| NCI-H2405 | 0.995 |
| NCI-H3122 | 0.96 |
| PC-3 [JPC-3] | 0.319 |
| PC-14 | 0.0952 |

compound: Cn1nnc2c(C(N)=O)ncn2c1=O [Temozolomide] + CC(C)C[C@H](NC(=O)[C@H](Cc1ccccc1)NC(=O)c1cnccn1)B(O)O [Bortezomib] (partner 0.002 µM); assay: as above; conditions: first compound 0.2 µM
Outline: as §1

| Cell Line | relative viability |
| --- | --- |
| LU99A | 1.28 |
| LXF-289 | 1.01 |
| NCI-H23 | 1.46 |
| NCI-H441 | 0.88 |
| NCI-H460 | 1.29 |
| NCI-H520 | 0.733 |
| NCI-H596 | 1.04 |
| NCI-H647 | 1.21 |
| NCI-H650 | 1.18 |
| NCI-H838 | 0.829 |
| NCI-H1355 | 1.34 |
| NCI-H1437 | 0.453 |
| NCI-H1650 | 0.199 |
| NCI-H1651 | 1.01 |
| NCI-H1666 | 0.779 |
